Laboratory results reported in patent publication US20110190235A1, “BORON-CONTAINING SMALL MOLECULES AS ANTIPROTOZOAL AGENTS” (Anacor Pharmaceuticals, Inc., priority 2009, published 2011).
In brackets after ≈: the same amount, converted by molar mass. Where two headings read alike, the source gives them in different places.

How the values were obtained:
[1] = system: bloodstream-form trypanosome T. brucei brucei 427 strain; assay: Trypanosoma brucei brucei high-throughput in vitro drug sensitivity assay (resazurin); format: cell-based; settings: for Selectivity Index (L929 IC50 / T. b. brucei IC50): T. b. brucei vs L929; for IC50: Trypanosoma brucei
[2] = Kinetic solubility by nephelometric (light scattering) method; format: physicochemical; settings: phosphate buffered saline, aqueous buffer, kinetic from dmso stock, PBS pH 7.4
Experimental: The kinetic solubilities of compounds were estimated using a nephelometric (light scattering) method. Briefly, compounds were serially diluted in DMSO, followed by dilution in PBS pH 7.4. After incubation, the amount of light scattered by a compound at each concentration was measured. […] At concentrations above the solubility limit, the compound precipitates and the precipitant in the well scatters the light, generating a signal. Higher levels of precipitant in a well scatter more light and produce a stronger signal.
A stock solution of compound (25 mM in DMSO) was prepared, and was serially diluted in DMSO in two-fold increments in a row of a 96 well plate to a lowest concentration of 24 μM. A duplicate plate was prepared by transfer of half of the volume of each well to a new plate. Each well containing DMSO solution of the test compound was then diluted further (1:100) with phosphate buffered saline (pH 7.4) to provide aqueous solutions of compound at the following final concentrations: 250, 125, 62.5, 31.3, 15.6, 7.8, 3.9, 2.0, 1.0, 0.5 and 0.2 μM. All liquid handling stages were performed on a Beckman Coulter Biomek NX Laboratory Automation Workstation. Each compound was diluted and tested in duplicate, providing four separate wells at each test concentration.
The test solutions of compound were incubated at room temperature for 90 minutes and then analyzed using a Thermoskan Ascent nephelometric plate reader. The nephelometer protocol included two steps: first, the plate was shaken for 60 seconds at 1200 rpm, then each well of the plate was read in succession with an 800 ms settling delay between measurements. The total measurement time for a single plate was less than 4 minutes.
The four values (in nephelometric units) obtained for each compound at each concentration were averaged and plotted on a log scale versus concentration.

[3] = L929 cytotoxicity evaluation (resazurin); format: cell-based; settings: mouse, L929 mouse fibroblast cells; 72 hrs incubation; read-out: Cytotox L-929 IC50
In short: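 Mouse L929 fibroblasts (1×10^4/mL seeding, attached overnight) were treated 72 h at 37 °C, 5% CO2 with serially diluted compounds in DMSO in D-MEM/10% FBS. Viability read by resazurin fluorescence after 3–4 h (ex 544/em 590 nm); IC50 from sigmoidal fits of single data points.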

[4] = 72 hrs incubation, read-out: T. b. brucei IC50
[5] = 72 hrs incubation, read-out: T.b. brucei IC50
[6] = 72 h, read-out: T.b. brucei IC50 (ug/mL)

| SMILES | Selectivity Index (L929 IC50 / T. b. brucei IC50) [1] | IC50 [1, 4] | IC50 [1, 5] | solubility at 90 min [2] | IC50 at 72 h [3] | IC50 ([1]; 72 h, read-out: T. b. brucei IC50 (nM)) | IC50 [1, 6] |
| --- | --- | --- | --- | --- | --- | --- | --- |
| CC1OB(O)c2cc(NC(=O)c3ccc(F)cc3F)ccc21 (stereo not shown) [compound 12, 2,4-Difluoro-N-(1-hydroxy-3-methyl-1,3-dihydro-benzo[c][1,2]oxaborol-6-yl)-benzamide] | >123 | 267 nM | 0.081 µg/mL | 100 µM (≈ 30.3 µg/mL) | > 10 mg/L | – | – |
| O=C(Nc1ccc2c(c1)B(O)OC21CCC1)c1ccc(F)cc1C(F)(F)F [compound 134] | >30 | – | – | 100 µM (≈ 37.9 µg/mL) | > 10 mg/L | 892 nM | 0.338 µg/mL |
| CC(C)c1ccc(C(=O)Nc2ccc3c(c2)B(O)OC3(C)C)c(Cl)c1 [compound 101, 2-Chloro-N-(1-hydroxy-3,3-dimethyl-1,3-dihydro-benzo[c][1,2]oxaborol-6-yl)-4-isopropyl-benzamide] | – | – | – | 25 µM (≈ 8.94 µg/mL) | 8.43 mg/L (≈ 23.6 µM) | – | 0.05 µg/mL |
| CC1(C)OB(O)c2cc(NC(=O)c3ccccc3C(F)(F)F)ccc21 [compound 34, N-(1-Hydroxy-3,3-dimethyl-1,3-dihydro-benzo[c][1,2]oxaborol-6-yl)-2-trifluoromethyl-benzamide] | >94 | 304 nM | 0.106 µg/mL | 50 µM (≈ 17.5 µg/mL) | > 10 mg/L | – | – |
| CC1OB(O)c2cc(NC(=O)c3ccccc3Br)ccc21 (stereo not shown) [compound 14, 2-Bromo-N-(1-hydroxy-3-methyl-1,3-dihydro-benzo[c][1,2]oxaborol-6-yl)-benzamide] | 39 | 124 nM | 0.043 µg/mL | 100 µM (≈ 34.6 µg/mL) | 1.67 mg/L (≈ 4.83 µM) | – | – |
| O=C(Nc1ccc2c(c1)B(O)OC21CCC1)c1ccc(F)cc1Cl [compound 135] | >58 | 498 nM | 0.172 µg/mL | 25 µM (≈ 8.64 µg/mL) | > 10 mg/L | – | – |
| CC1(C)OB(O)c2cc(NC(=O)c3ccc(Cl)cc3Cl)ccc21 [compound 65, 2,4-Dichloro-N-(1-hydroxy-3,3-dimethyl-1,3-dihydro-benzo[c][1,2]oxaborol-6-yl)-benzamide] | – | – | 0.278 µg/mL | 50 µM (≈ 17.5 µg/mL) | > 10 mg/L | – | – |
| CC1OB(O)c2cc(NC(=O)c3ccc(Cl)cc3)ccc21 (stereo not shown) [compound 9, 4-Chloro-N-(1-hydroxy-3-methyl-1,3-dihydro-benzo[c][1,2]oxaborol-6-yl)-benzamide] | >208 | 159 nM | 0.048 µg/mL | 25 µM (≈ 7.54 µg/mL) | > 10 mg/L | – | – |
| CC1(C)OB(O)c2cc(NC(=O)c3ccc(Br)cc3Cl)ccc21 [compound 76, 4-Bromo-2-chloro-N-(1-hydroxy-3,3-dimethyl-1,3-dihydro-benzo[c][1,2]oxaborol-6-yl)-benzamide] | – | – | 0.185 µg/mL | 25 µM (≈ 9.86 µg/mL) | > 10 mg/L | – | – |
| CC1(C)OB(O)c2cc(NC(=O)c3ccccc3Cl)ccc21 [compound 38, 2-Chloro-N-(1-hydroxy-3,3-dimethyl-1,3-dihydro-benzo[c][1,2]oxaborol-6-yl)-benzamide] | >60 | 532 nM | 0.168 µg/mL | 13 µM (≈ 4.1 µg/mL) | > 10 mg/L | – | – |
| O=C(Nc1ccc2c(c1)B(O)OC21CCCC1)c1ccc(F)cc1C(F)(F)F [compound 136] | – | > 12700 nM | > 5 µg/mL | 25 µM (≈ 9.83 µg/mL) | > 10 mg/L | – | – |
| Cc1ccc(C(=O)Nc2ccc3c(c2)B(O)OC3C)cc1 (stereo not shown) [compound 7, N-(1-Hydroxy-3-methyl-1,3-dihydro-benzo[c][1,2]oxaborol-6-yl)-4-methyl-benzamide] | 137 | 146 nM | 0.041 µg/mL | 100 µM (≈ 28.1 µg/mL) | 5.61 mg/L (≈ 20 µM) | – | – |
| CC1(C)OB(O)c2cc(NC(=O)c3ccc4ccccc4c3)ccc21 [compound 112, Naphthalene-2-carboxylic acid (1-hydroxy-3,3-dimethyl-1,3-dihydrobenzo[c][1,2]oxaborol-6-yl)-amide] | – | – | 0.278 µg/mL | 50 µM (≈ 16.6 µg/mL) | > 10 mg/L | – | – |
| Cc1ccc(F)c(C(=O)Nc2ccc3c(c2)B(O)OC3(C)C)c1Cl [compound 107, 2-Chloro-6-fluoro-N-(1-hydroxy-3,3-dimethyl-1,3-dihydro-benzo[c][1,2]oxaborol-6-yl)-3-methyl-benzamide] | – | – | 0.566 µg/mL | 4.3 µM (≈ 1.49 µg/mL) | > 10 mg/L | – | – |
| CC1(C)OB(O)c2cc(NC(=O)c3ccccc3Br)ccc21 [compound 39, 2-Bromo-N-(1-hydroxy-3,3-dimethyl-1,3-dihydro-benzo[c][1,2]oxaborol-6-yl)-benzamide] | >44 | 631 nM | 0.227 µg/mL | 50 µM (≈ 18 µg/mL) | > 10 mg/L | – | – |
| CC1(C)OB(O)c2cc(NC(=O)c3ccc(F)cc3)ccc21 [compound 44, 4-Fluoro-N-(1-hydroxy-3,3-dimethyl-1,3-dihydro-benzo[c][1,2]oxaborol-6-yl)-benzamide] | – | > 16700 nM | > 5 µg/mL | 100 µM (≈ 29.9 µg/mL) | > 10 mg/L | – | – |
| CC1OB(O)c2cc(NC(=O)c3ccccc3F)ccc21 (stereo not shown) [compound 8, 2-Fluoro-N-(1-hydroxy-3-methyl-1,3-dihydro-benzo[c][1,2]oxaborol-6-yl)-benzamide] | 84 | 246 nM | 0.07 µg/mL | 50 µM (≈ 14.3 µg/mL) | 5.86 mg/L (≈ 20.6 µM) | – | – |
| CC(C)CC1OB(O)c2cc(NC(=O)c3ccc(F)cc3C(F)(F)F)ccc21 (stereo not shown) [compound 23, 4-Fluoro-N-(1-hydroxy-3-isobutyl-1,3-dihydro-benzo[c][1,2]oxaborol-6-yl)-2-trifluoromethyl-benzamide] | >4 | 6100 nM | 2.41 µg/mL | 25 µM (≈ 9.88 µg/mL) | > 10 mg/L | – | – |
| CC(C)(C)c1ccc(C(=O)Nc2ccc3c(c2)B(O)OC3(C)C)cc1 [compound 33, 4-tert-Butyl-N-(1-hydroxy-3,3-dimethyl-1,3-dihydro-benzo[c][1,2]oxaborol-6-yl)-benzamide] | – | – | 0.229 µg/mL | 6 µM (≈ 2.02 µg/mL) | > 10 mg/L | – | – |
| CC1OB(O)c2cc(NC(=O)c3ccc(F)cc3Cl)ccc21 (stereo not shown) [compound 13, 2-Chloro-4-fluoro-N-(1-hydroxy-3-methyl-1,3-dihydro-benzo[c][1,2]oxaborol-6-yl)-benzamide] | 47 | 135 nM | 0.043 µg/mL | > 200 µM | 2 mg/L (≈ 6.26 µM) | – | – |
| O=C(Nc1ccc2c(c1)B(O)OC2C1CCCC1)c1ccc(F)cc1C(F)(F)F (stereo not shown) [compound 19, N-(3-Cyclopentyl-1-hydroxy-1,3-dihydro-benzo[c][1,2]oxaborol-6-yl)-4-fluoro-2-trifluoromethyl-benzamide] | >3 | 7810 nM | 3.18 µg/mL | 100 µM (≈ 40.7 µg/mL) | > 10 mg/L | – | – |
| CC1(C)OB(O)c2cc(NC(=O)c3ccccn3)ccc21 [compound 114, Pyridine-2-carboxylic acid (1-hydroxy-3,3-dimethyl-1,3-dihydro-benzo[c][1,2]oxaborol-6-yl)-amide] | – | – | > 5 µg/mL | 100 µM (≈ 28.2 µg/mL) | > 10 mg/L | – | – |
